Patent publication US20070219203A1, “Arylalkylamino-substituted quinazoline analogues” (Neurogen Corporation, priority 2004, published 2007)

Target: T1, human capsaicin receptor (Homo sapiens, UniProt Q8NER1)
T1 construct: expressed in transfected cells
Experiment: Calcium mobilization assay, antagonist activity (Example 6)
Format: cell-based
Conditions: Table II; 50% decrease in fluorescence response of cells expressing human capsaicin receptor exposed to capsaicin
How it was run: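 Stable HEK293 clones expressing full-length human receptor, loaded with Fluo-3 in KRH buffer pH 7.4. Test compounds at 1 μM to 5 μM final preincubated 0.5 to 6 hours at room temperature, then challenged with capsaicin at its EC50; IC50 is 50% decrease in FLIPR calcium response.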

T1 sequence (Q8NER1 whole entry): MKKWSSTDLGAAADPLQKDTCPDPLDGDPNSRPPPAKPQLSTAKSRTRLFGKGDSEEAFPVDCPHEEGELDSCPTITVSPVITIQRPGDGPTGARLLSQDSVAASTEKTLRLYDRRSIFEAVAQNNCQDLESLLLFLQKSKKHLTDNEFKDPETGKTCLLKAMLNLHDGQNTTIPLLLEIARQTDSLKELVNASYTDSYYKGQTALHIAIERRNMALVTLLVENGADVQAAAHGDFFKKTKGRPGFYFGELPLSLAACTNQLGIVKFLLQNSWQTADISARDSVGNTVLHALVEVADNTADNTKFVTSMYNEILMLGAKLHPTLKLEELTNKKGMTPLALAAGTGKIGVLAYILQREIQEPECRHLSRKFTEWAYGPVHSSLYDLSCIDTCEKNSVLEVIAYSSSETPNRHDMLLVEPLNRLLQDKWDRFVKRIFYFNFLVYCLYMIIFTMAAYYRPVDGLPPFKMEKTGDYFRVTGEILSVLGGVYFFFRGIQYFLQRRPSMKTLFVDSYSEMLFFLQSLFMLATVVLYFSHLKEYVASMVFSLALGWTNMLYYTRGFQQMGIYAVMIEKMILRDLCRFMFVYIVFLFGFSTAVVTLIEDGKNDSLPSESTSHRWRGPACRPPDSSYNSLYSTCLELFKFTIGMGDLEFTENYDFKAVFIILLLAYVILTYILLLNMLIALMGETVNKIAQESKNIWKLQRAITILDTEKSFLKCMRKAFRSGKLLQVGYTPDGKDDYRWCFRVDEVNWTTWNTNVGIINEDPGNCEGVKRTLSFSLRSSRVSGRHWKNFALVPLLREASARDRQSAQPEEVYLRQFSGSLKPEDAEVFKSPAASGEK

SMILES | IC50 [nM]
C=C(C)CN(CC)Cc1nc(NCCc2ccccc2C)c2ccc(-c3ncccc3C(F)(F)F)cc2n1 [Compound 155, [2-{[Ethyl-(2-methyl-allyl)-amino]-methyl}-7-(3-trifluoromethyl-pyridin-2-yl)-quinazolin-4-yl]-(2-o-tolyl-ethyl)-amine] | ≤ 1000
Cc1ccccc1CCNc1nc(CN(C)C2CCCCC2)nc2cc(-c3ncccc3C(F)(F)F)ccc12 [Compound 158, [2-[(Cyclohexyl-methyl-amino)-methyl]-7-(3-trifluoromethyl-pyridin-2-yl)-quinazolin-4-yl]-(2-o-tolyl-ethyl)-amine] | ≤ 1000
CCN(Cc1nc(NCCc2ccccc2C)c2ccc(-c3ncccc3C(F)(F)F)cc2n1)C1CCCCC1 [Compound 164, [2-[(Cyclohexyl-ethyl amino)-methyl]-7-(3-trifluoromethyl-pyridin-2-yl)-quinazolin-4-yl]-(2-o-tolyl-ethyl)-amine] | ≤ 1000
COCCN(CCOC)Cc1nc(NCCc2ccccc2C)c2ccc(-c3ncccc3C(F)(F)F)cc2n1 [Compound 168, [2-{[Bis-(2-methoxy-ethyl)-amino]-methyl}-7-(3 trifluoromethyl-pyridin-2-yl)-quinazolin-4-yl]-(2-o-tolyl-ethyl)-amine] | ≤ 1000
CCCCCN(CCCCC)Cc1nc(NCCc2ccccc2C)c2ccc(-c3ncccc3C(F)(F)F)cc2n1 [Compound 171, [2-Dipentylaminomethyl-7-(3-trifluoromethyl-pyridin-2-yl)-quinazolin-4-yl]-(2-o-tolyl-ethyl)-amine] | ≤ 1000
CCCCCN(CCCCC)Cc1nc(NCCc2ccccc2Cl)c2ccc(-c3ncccc3C(F)(F)F)cc2n1 [Compound 172, [2-(2-Chloro-phenyl)-ethyl]-[2-dipentylaminomethyl-7-(3-trifluoromethyl-pyridin-2-yl)-quinazolin-4-yl]-amine] | ≤ 1000
CCCCCCN(CCCCCC)Cc1nc(NCCc2ccccc2)c2ccc(-c3ncccc3C(F)(F)F)cc2n1 [Compound 173, [2-Dihexylaminomethyl-7-(3-trifluoromethyl-pyridin-2-yl)-quinazolin-4-yl]-phenethyl-amine] | ≤ 1000
CCCCCCN(CCCCCC)Cc1nc(NCCc2ccccc2C)c2ccc(-c3ncccc3C(F)(F)F)cc2n1 [Compound 174, [2-Dihexylaminomethyl-7-(3-trifluoromethyl-pyridin-2-yl)-quinazolin-4-yl]-(2-o-tolyl-ethyl)-amine] | ≤ 1000
CCCCCCN(CCCCCC)Cc1nc(NCCc2ccccc2Cl)c2ccc(-c3ncccc3C(F)(F)F)cc2n1 [Compound 175, [2-(2-Chloro-phenyl)-ethyl]-[2-dihexylaminomethyl-7-(3-trifluoromethyl-pyridin-2-yl)-quinazolin-4-yl]-amine] | ≤ 1000
CC1CC(C)CN(Cc2nc(NCCc3ccccc3)c3ccc(-c4ncccc4C(F)(F)F)cc3n2)C1 (stereo not drawn) [Compound 176, [2-(3,5-Dimethyl-piperidin-1-ylmethyl)-7-(3-trifluoromethyl-pyridin-2-yl)-quinazolin-4-yl]-phenethyl-amine] | ≤ 1000
Cc1ccccc1CCNc1nc(CN2CC(C)CC(C)C2)nc2cc(-c3ncccc3C(F)(F)F)ccc12 (stereo not drawn) [Compound 177, [2-(3,5-Dimethyl-piperidin-1-ylmethyl)-7-(3-trifluoromethyl-pyridin-2-Yl)-quinazolin-4-yl]-(2-o-tolyl-ethyl)-amine] | ≤ 1000
CC1CC(C)CN(Cc2nc(NCCc3ccccc3Cl)c3ccc(-c4ncccc4C(F)(F)F)cc3n2)C1 (stereo not drawn) [Compound 178, [2-(2-Chloro-phenyl)-ethYl]-[2-(3,5-dimethyl-piperidin-1-ylmethyl)-7-(3-trifluoromethyl-pyridin-2-yl)-quinazolin-4-yl]-amine] | ≤ 1000
